Experimental findings from patent publication US11414429B2, “Compound or pharmaceutically acceptable salt thereof” (RIKEN, priority 2016, dated 2022) are described below.

One assay addresses T1, tankyrase 1 (TNKS 1) (Homo sapiens, UniProt O95271).
T1 construct: 1,024-1,327aa; made in house; host or cells: cell-free protein synthesis system
As to the kind of experiment: Tankyrase inhibitory activity test (ELISA, self-polyADP ribosylation), tankyrase 1. The class given is biochemical. The note with it: tankyrase 1, ELISA, self-polyADP ribosylation; read-out: TNKS1 inhibitory activity (IC50 class). The protocol: (§1) (Test Example 1) Tankyrase Inhibitory Activity Test
(§2) For each of the compounds obtained in Examples (the test target compounds), the tankyrase inhibitory activity (an inhibitory activity against tankyrase 1 (TNKS 1) and an inhibitory activity against tankyrase 2 (TNKS 2)) was evaluated by measuring the enzymatic activity of tankyrase 1 and the enzymatic activity of tankyrase 2 by the ELISA technique using self-polyADP ribosylation as an index. First, Flag-tag fusion tankyrase 1 (1,024-1,327aa, SAM+PARP) and tankyrase 2 (613-1, 116aa, ANK5+SAM+PARP) were each synthesized by a cell-free protein synthesis system and diluted with a Tris buffer (50 mM Tris-HCl (pH 8.0), 150 mM NaCl, 10% glycerol). Then, 50 μL of the diluted tankyrase 1 or tankyrase 2 was added to a plate on which the anti-FLAGM 2 monoclonal antibody was immobilized (Anti-FLAG high sensitivity M2 coated plate) (SIGMA Corporation), and was allowed to stand at 4° C. overnight. Thereafter, the plate was washed four times with a PBS buffer containing 0.1% Triton X-100 (PBST buffer).
(§3) Subsequently, the test target compound diluted with an assay buffer (50 mM Tris-HCl (pH 8.0), 4 mM MgCl2, 0.2 mM DTT) (using DMSO as a control) was added to each well of the plate and was allowed to stand at room temperature for 10 minutes. Thereafter, a biotin-labeled NAD solution (225 μM NAD, 25 μM 6-Biotin-17-NAD (Trevigen Inc.)) was added as a donor substrate and mixed with the resultant test target compound, and the reaction was allowed to proceed at 30° C. for 45 minutes. Instead of the biotin-labeled NAD solution, distilled water was added to blank wells. After the reaction, the plate was washed four times with the PBST buffer. Thereafter, HRP (horseradish peroxidase)-labeled streptavidin (Trevigen Inc.) diluted 1,000-fold with the PBS buffer was added to each well, and the reaction was allowed to proceed at room temperature for 20 minutes. After the plate was washed four times with the PBST buffer, a chemiluminescent substrate solution TACS-Sapphire (Trevigen Inc.) was added to each well and the reaction was allowed to proceed at room temperature for 20 minutes. Then, the chemiluminescence intensity was measured using a chemiluminescence measuring apparatus.
(§4) The residual enzyme activity in the presence of the test target compound was determined in accordance with the following formula. Based on the residual enzyme activity at multiple concentrations of the test target compound, an enzyme inhibition activity was calculated as a 50% inhibitory concentration (IC50 value) using data analysis software named Origin (LightStone Corp.).

In a further assay the target is T2, tankyrase 2 (TNKS 2) (Homo sapiens, UniProt Q9H2K2).
T2 construct: 613-1, 116aa; made in house; host or cells: cell-free protein synthesis system
T2 sequence (Q9H2K2 613-1166): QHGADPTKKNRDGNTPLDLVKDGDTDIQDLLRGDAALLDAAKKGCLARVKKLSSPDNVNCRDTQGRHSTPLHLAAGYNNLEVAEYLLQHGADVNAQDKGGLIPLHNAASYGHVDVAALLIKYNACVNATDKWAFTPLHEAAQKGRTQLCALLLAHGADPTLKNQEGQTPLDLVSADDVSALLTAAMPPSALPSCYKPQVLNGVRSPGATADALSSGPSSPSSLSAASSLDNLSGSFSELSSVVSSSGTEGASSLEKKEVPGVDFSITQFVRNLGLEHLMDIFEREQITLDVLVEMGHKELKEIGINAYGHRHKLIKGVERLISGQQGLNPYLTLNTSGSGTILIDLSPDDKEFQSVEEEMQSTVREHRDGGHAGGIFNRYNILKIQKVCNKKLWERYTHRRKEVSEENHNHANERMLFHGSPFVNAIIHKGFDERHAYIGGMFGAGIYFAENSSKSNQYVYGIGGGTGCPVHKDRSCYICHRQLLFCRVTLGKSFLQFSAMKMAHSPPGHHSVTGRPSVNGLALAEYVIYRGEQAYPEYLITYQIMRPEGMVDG
The assay is described as follows: Tankyrase inhibitory activity test (ELISA, self-polyADP ribosylation), tankyrase 2. The class given is biochemical. The note with it: tankyrase 2, ELISA, self-polyADP ribosylation; read-out: TNKS2 inhibitory activity (IC50 class). The protocol: as §1, §2, §3, §4

The subject of assay [1] is human colorectal cancer cell line, COLO-320DM. As to the kind of experiment: Cell proliferation inhibitory activity test (Celltiter-Glo Luminescent Cell Viability Assay). It is filed as cell-based. Particulars: COLO-320DM cells, 96 hours, read-out: COLO-320 DM cell proliferation inhibitory activity (GI50 class). The method, then:
(Test Example 2) Cell Proliferation Inhibitory Activity Test
The cell proliferation inhibitory activity of the compound obtained in each of Examples against human colorectal cancer cell line, COLO-320DM was evaluated by Celltiter-Glo Luminescent Cell Viability Assay (Promega Corporation, G7573). The COLO-320 DM cells were cultured in a RPMI-1640 medium (Wako Pure Chemical Industries, Ltd., 189-02025) containing 10% fetal bovine serum and 2 mM of glutamine. The cultured cells were washed with PBS and then detached with trypsin/EDTA to prepare a cell solution containing 3×10^4 cells/mL.
Next, the cell solution was seeded in a 96 well microplate (Thermo/Nunc, 136101) in an amount of 70 μL/well and was cultured overnight under conditions at 37° C. with 5% CO2. On the next day, 10 μL/well of a solution in which the test target compound (DMSO solution) was diluted with the cell culture medium (a final DMSO concentration of 1%) was added and the reaction was allowed to proceed under conditions at 37° C. with 5% CO2 for 96 hours (a 1% DMSO solution was used as a control). Subsequently, 80 μL/well of Celltiter-Glo Luminescent Cell Viability Assay reagent (Promega Corporation, G7573) was added, followed by agitation for 2 minutes with a shaker under shielding with aluminum foil. Thereafter, the resultant solution was allowed to stand for reaction at room temperature for 10 minutes.
After that, the luminescent signal was measured with a luminometer (Biotech, Synergy). The cell proliferation inhibitory activity was evaluated by obtaining a percentage of a cell proliferation volume of each compound-added group with respect to a cell proliferation volume (100%) of a control group in which no test target component solution was added, and calculating a value of compound concentration (GI50) required to reduce the remaining cell volume to 50% of the remaining cell volume of the control. […] The results are shown in Tables 120 to 123 together with the results of the tankyrase inhibition activity test.

T1 sequence (O95271 1024-1327): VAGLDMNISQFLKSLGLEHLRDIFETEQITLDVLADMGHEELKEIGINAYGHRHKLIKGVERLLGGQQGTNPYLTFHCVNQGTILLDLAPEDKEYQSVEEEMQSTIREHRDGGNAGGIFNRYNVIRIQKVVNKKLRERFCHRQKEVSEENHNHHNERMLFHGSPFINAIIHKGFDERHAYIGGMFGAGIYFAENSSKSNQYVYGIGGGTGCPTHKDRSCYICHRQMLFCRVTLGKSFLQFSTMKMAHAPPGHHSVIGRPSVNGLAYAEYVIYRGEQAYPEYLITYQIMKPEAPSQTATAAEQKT

Turning to `O=c1[nH]c(N2CCC3(CC2)CN(Cc2cncnc2)c2cc(F)cc(F)c23)nc2c1CCCC2` [Example 252, 2-[4,6-difluoro-1-(pyrimidin-5-yl)methyl-spiro [indoline-3,4′-piperidin]-1′-yl]-5,6,7,8-tetrahydro-quinazolin-4(3H)-one], the IC50 at tankyrase 1 (TNKS 1) and at tankyrase 2 (TNKS 2) was less than 20 nM each time. In addition, in assay [1], the GI50 was 100 to 600 nM.

Take `O=c1[nH]c(N2CCC3(CC2)CN(Cc2ccccn2)c2cc(F)cc(F)c23)nc2c1CCCC2` [Example 253, 2-[4,6-difluoro-1-(pyridin-2-yl)methyl-spiro [indoline-3,4′-piperidin]-1′-yl]-5,6,7,8-tetrahydro-quinazolin-4(3H)-one]: the IC50 on tankyrase 1 (TNKS 1) and on tankyrase 2 (TNKS 2) was less than 20 nM each time. Also, the GI50 in assay [1] lay within 100 to 600 nM.

`O=c1[nH]c(N2CCC3(CC2)CN(Cc2ccncc2)c2cc(F)cc(F)c23)nc2c1CCCC2` [Example 254, 2-[4,6-difluoro-1-(pyridin-4-yl)methyl-spiro[indoline-3,4′-piperidin]-1′-yl]-5,6,7,8-tetrahydro-quinazolin-4(3H)-one]: the IC50 on tankyrase 1 (TNKS 1) and at tankyrase 2 (TNKS 2) was less than 20 nM each time. Further, the GI50 in assay [1] lay within 100 to 600 nM.

For `Cc1cccc2c(=O)[nH]c(N3CCC4(CC3)CN(CCO)c3cc(F)cc(F)c34)nc12` [Example 258, 2-[4,6-di-fluoro-1-(2-hydroxy-ethyl)spiro-[indoline-3,4′-piperidin]-1′-yl]-8-methyl-quinazolin-4(3H)-one], the IC50 on tankyrase 1 (TNKS 1) and at tankyrase 2 (TNKS 2) was less than 20 nM in each case. Moreover, the GI50 in assay [1] was 600 to 1000 nM.

For the compound `O=c1[nH]c(N2CCC3(CC2)CN(CCO)c2cc(F)cc(F)c23)nc2c(CO)cccc12` [Example 259, 2-[4,6-di-fluoro-1-(2-hydroxy-ethyl)spiro-[indoline-3,4′-piperidin]-1′-yl]-8-(hydroxy-methyl)-quinazolin-4(3H)-one], the IC50 at tankyrase 1 (TNKS 1) and at tankyrase 2 (TNKS 2) was less than 20 nM throughout. Moreover, the GI50 in assay [1] lay in the range of 600 to 1000 nM.

Take `O=C1N(Cc2cccnc2)c2cc(F)cc(F)c2C12CCN(c1nc3c(CO)cccc3c(=O)[nH]1)CC2` [Example 273, 4,6-difluoro-1′-[8-(hydroxymethyl)-4-oxo-3,4-dihydro-quinazolin-2-yl]-1-(pyridin-3-ylmethyl)-spiro[indoline-3,4′-piperidin]-2-one]: the IC50 on tankyrase 1 (TNKS 1) and on tankyrase 2 (TNKS 2) was less than 20 nM each time. Besides, the GI50 in assay [1] fell in the range of 600 to 1000 nM.

`CN1CCCc2c1nc(N1CCC3(CC1)C(=O)N(C)c1ccccc13)[nH]c2=O` [Example 292, 1-methyl-1′-(8-methyl-4-oxo-3,4,5,6,7,8-hexa-hydropyrido-[2,3-d]-pyrimidin-2-yl)-spiro[indoline-3,4′-piperidine]-2-one]: the IC50 at tankyrase 1 (TNKS 1) and at tankyrase 2 (TNKS 2) was less than 20 nM in each case. Further, in assay [1], the GI50 lay in the range of 100 to 600 nM.

Take `O=c1[nH]c(N2CCC3(CC2)CN(Cc2ncccn2)c2cc(F)cc(F)c23)nc2c1CCCC2` [Example 316, 2-[4,6-difluoro-1-(pyrimidin-2-yl-methyl)spiro-[indoline-3,4′-piperidine]-1′-yl]-5,6,7,8-tetrahydro-quinazoline-4(3H)-one]: the IC50 on tankyrase 1 (TNKS 1) and on tankyrase 2 (TNKS 2) was less than 20 nM each time. In assay [1], the GI50 lay within 100 to 600 nM.

On to `CN1C(=O)C2(CCN(c3nc4c(c(=O)[nH]3)CCCC4)CC2)c2c(Cl)cc(-c3nc(C(=O)N4CCOCC4)co3)cc21` [Example 323, 4-chloro-1-methyl-6-[4-(morpholine-4-carbonyl)oxazole-2-yl]-1′-(4-oxo-3,4,5,6,7,8-hexa-hydroquinazoline-2-yl)spiro[indoline-3,4′-piperidin]-2-one], for which the IC50 on tankyrase 1 (TNKS 1) and at tankyrase 2 (TNKS 2) was less than 20 nM each time. Besides, the GI50 in assay [1] was in the range of 600 to 1000 nM.

For `CN1CCCc2c1nc(N1CCC3(CC1)C(=O)N(C)c1cc(-c4nc(C(=O)N5CCOCC5)co4)cc(Cl)c13)[nH]c2=O` [Example 326, 4-chloro-6-[4-(morpholine-4-carbonyl)-oxazol-2-yl]-1-methyl-1′-(8-methyl-4-oxo-3,4,5,6,7,8-hexahydro-pyrido[2,3-d]-pyrimidin-2-yl)spino-[indoline-3,4′-piperidin]-2-one], the IC50 at tankyrase 1 (TNKS 1) and on tankyrase 2 (TNKS 2) was 20 to 200 nM each time. In assay [1], the GI50 was in the range of 600 to 1000 nM.

`CN1CCCc2c1nc(N1CCC3(CC1)C(=O)N(C)c1c(C#N)ccc(Cl)c13)[nH]c2=O` [Example 327, 4-chloro-1-methyl-1′-(8-methyl-4-oxo-3,4,5,6,7,8-hexahydro-pyrido[2,3-d]-pyrimidin-2-yl)-2-oxo-spiro[indoline-3,4′-piperidine]-7-carbonitrile]: the half-inhibitory concentration (IC50) at tankyrase 1 (TNKS 1) and on tankyrase 2 (TNKS 2) was less than 20 nM throughout. In assay [1], the GI50 lay within 100 to 600 nM.

For the compound `CCOC(=O)c1coc(-c2cc(Cl)c3c(c2)N(C)C(=O)C32CCN(c3nc4c(c(=O)[nH]3)CCCN4C)CC2)n1` [Example 328, 4-chloro-6-(4-ethoxy-carbonyl-oxazole-2-yl)-1-methyl-1′-(8-methyl-4-oxo-3,4,5,6,7,8-hexahydro-pyrido[2,3-d]-pyrimidin-2-yl)spiro-[indoline-3,4′-piperidin]-2-one], the IC50 on tankyrase 1 (TNKS 1) was 20 to 200 nM; on tankyrase 2 (TNKS 2), less than 20 nM. In assay [1], the GI50 was in the range of 100 to 600 nM.

In the case of `CN1CCCc2c1nc(N1CCC3(CC1)C(=O)N(C)c1cc(-c4nc(CN5CCCC5)co4)cc(Cl)c13)[nH]c2=O` [Example 329, 4-chloro-1-methyl-1′-(8-methyl-4-oxo-3,4,5,6,7,8-hexahydro-pyrido[2,3-d]-pyrimidin-2-yl)-6-[4-(pyrroidin-1yl-methyl)oxazol-2-yl]-spiro-[indoline-3,4′-piperidin]-2-one], the 50% inhibitory concentration (IC50) on tankyrase 1 (TNKS 1) and on tankyrase 2 (TNKS 2) was 20 to 200 nM throughout. The GI50 in assay [1] was in the range of 600 to 1000 nM.

With `CN1CCCc2c1nc(N1CCC3(CC1)C(=O)N(C)c1c(C(N)=O)ccc(Cl)c13)[nH]c2=O` [Example 330, 4-chloro-1-methyl-1′-(8-methyl-4-oxo-3,4,5,6,7,8-hexahydro-pyrido[2,3-d]-pyrimidin-2-yl)-2-oxospiro-[indoline-3,4′-piperidine]-7-carboxamide], the IC50 at tankyrase 1 (TNKS 1) and on tankyrase 2 (TNKS 2) was less than 20 nM each time. The GI50 in assay [1] was 600 to 1000 nM.

With `CN1CCCc2c1nc(N1CCC3(CC1)C(=O)N(C)c1cc(-c4nc(C(=O)O)co4)cc(Cl)c13)[nH]c2=O` [Example 331, 2-{4-chloro-1-methyl-1′-(8-methyl-4-oxo-3,4,5,6,7,8-hexahydro-pyrido[2,3-d]pyrimidin-2-yl)-2-oxospiro [indoline-3,4′-piperidin]-6-yl]oxazole-4-carboxylic acid], the concentration for half-maximal inhibition (IC50) at tankyrase 1 (TNKS 1) and at tankyrase 2 (TNKS 2) was less than 20 nM throughout. Also, the GI50 in assay [1] lay within 600 to 1000 nM.
